Assay results from patent US9399047B2, “Composition and method to alleviate joint pain using phospholipids and roe extract” (U.S. NUTRACEUTICALS, LLC, priority 2009, dated 2016).

Key:
inflammatory markers = conditions: astaxanthin 1 mg/kg, cited from earlier work
NO, PGE-2 and TNF-Alpha = conditions: induced uveitis; cited from earlier work
[1] = test system: C-Reactive Protein (C-RP); conditions: human subjects with high risk levels of C-RP, three months of treatment; cited from earlier work
[2] = test system: cellular membrane lipid peroxidation; conditions: cited from earlier work
lens epithelial cells = conditions: in vitro, umol/L concentrations; cited from earlier work
[3] = 4 mgs/day, compared to untreated subjects; cited from earlier work
[4] = cited from earlier work
[5] = cited from earlier work; remark: listed apart in the source
[6] = test system: photo-receptors, ganglion and neuronal cell; conditions: cited from earlier work
[7] = serum; cited from earlier work
healthy adults = conditions: eight weeks, 6 mg per day; cited from earlier work
rats = conditions: cited from earlier work
solubility = format: physicochemical
Source text: It is also possible to use a pure diol of the S,S′ astaxanthin, including a synthetic diol with a surfactant and/or the low molecular weight hyaluronic acid. It is possible to use that pure diol in combination with the EPA rich algae based oil or other fish, roe extract, or plant based oil and/or phospholipid and/or surfactant as described above, and which is admixed with either astaxanthin derived from Haematococcus pluvialis or the free diol form in substantially pure S,S′ enantiomer form. It is possible to add synthetically derived mixed enantiomers of the diol. The diol of the S,S′ astaxanthin is possible because in cases of krill oil and possibly algae based oils and Hp derived and other types, there are principally diesters and monoesters respectively with very little diol, which is insoluble. […] It is possible to synthesize asymmetrically the S,S′ pure diol. Despite the pure diol's poor solubility in some examples, there may be an active transport mechanism related to its bioavailability, or conversely, that only in the diol form is the monoester or diester forms transferred from the intestines to the blood. […]

[8] = cited from earlier work; remark: listed apart in the source

Compound: CC1=C(/C=C/C(C)=C/C=C/C(C)=C/C=C/C=C(C)/C=C/C=C(C)/C=C/C2=C(C)C(=O)[C@@H](O)CC2(C)C)C(C)(C)C[C@H](O)C1=O [Astaxanthin, 3,3′-dihydroxy-β-β-carotene-4,4′-dione]
- down regulates TNF-alpha production (inflammatory markers; in vitro and in vivo): 75%
- down regulates prostaglandin E-2 production (PGE-2) (inflammatory markers; in vitro and in vivo): 75%
- inhibits nitric oxide synthase (Nos) expression of nitric oxide (inflammatory markers; in vitro and in vivo): 58%
- effects on inflammatory markers compared with prednisolone (inflammatory markers): nearly as effective as prednisolone
- ocular anti-inflammatory activity by suppression of NO, PGE-2 and TNF-Alpha (NO, PGE-2 and TNF-Alpha): dose dependant ocular anti-inflammatory activity
- patients whose serum C-RP levels dropped below the risk level [1]: 43%
- effect on pro-oxidant activity of Vioxx [2]: negate the pro-oxidant activity of Vioxx
- UVB induced lipid peroxidative mediated cell damage (lens epithelial cells): suppresses
- post exercise joint fatigue following strenuous knee exercise [3]: prevented post exercise joint fatigue
- quenching of singlet oxygen, times more powerful than Vitamin E ([4]; versus Vitamin E): about 50 times
- quenching of singlet oxygen, relative to lutein ([4]; versus lutein): three times more powerful
- quenching of singlet oxygen, times more powerful than β-carotene ([4]; versus β-carotene): 11 times
- free radical quenching ability, times more powerful than Vitamin C ([5]; versus Vitamin C): 65 times
- free radical quenching ability, times more powerful than Vitamin E ([5]; versus Vitamin E): 14 times
- free radical quenching ability, times more powerful than lutein ([5]; versus lutein): 47 times
- free radical quenching ability, times more powerful than β-carotene ([5]; versus β-carotene): 54 times
- crossing of the blood-brain-retina barrier ([6]; direct measurement of retinal astaxanthin concentrations): crosses the blood-brain-retina barrier
- photon induced damage of photo-receptors, ganglion and neuronal cell damage ([6]; in vivo): protection
- Cmax [7]: 65 ng/mL
- T1/2 [7]: 16 h
- Tmax [7]: 8 h
- negative effect of supplementation (healthy adults): no negative effect
- Oral LD 50 (rats; rat, in vivo, po): 600 mg/kg
- NOAEL (rats; rats): 465 mg/kg

Compound: CC1=C(/C=C/C(C)=C/C=C/C(C)=C/C=C/C=C(C)/C=C/C=C(C)/C=C/C2=C(C)C(=O)[C@@H](O)CC2(C)C)C(C)(C)C[C@H](O)C1=O [diol of the S,S′ astaxanthin]
- solubility (solubility): insoluble

Compound: CCCCCCCCCCCCCCCC(=O)O[C@H]1CC(C)(C)C(/C=C/C(C)=C/C=C/C(C)=C/C=C/C=C(C)/C=C/C=C(C)/C=C/C2=C(C)C(=O)[C@@H](OC(=O)CCCCCCCCCCCCCCC)CC2(C)C)=C(C)C1=O [(3R,3′R-astaxanthin dipalmitate, reference compound]
- relative absorption of astaxanthin compared to the other two isomers ([8]; men, astaxanthin fatty acyl diesters (Coral-Hinostroza et al. 2004)): higher relative absorption

Compound: CC1=C(/C=C/C(C)=C/C=C/C(C)=C/C=C/C=C(C)/C=C/C=C(C)/C=C/C2=C(C)C(=O)[C@@H](O)CC2(C)C)C(C)(C)C[C@H](O)C1=O [free astaxanthin diol]
- uptake relative to esterified astaxanthin ([8]; human plasma, feeding studies): 4-5 times
